Experimental findings from ChEMBL document CHEMBL4825658, “Discovery of 3-(4-(2-((1H-Indol-5-yl)amino)-5-fluoropyrimidin-4-yl)-1H-pyrazol-1-yl)propanenitrile Derivatives as Selective TYK2 Inhibitors for the Treatment of Inflammatory Bowel Disease” (J Med Chem, 2021) are described below.

The inhibition is the change of the read-out against control, counted positive when it falls. For orientation: half-life means the time needed for the level to fall by half in the phase considered. One may read the AUC(0-t) as the area under the concentration-time curve up to a stated or last time point. Low values mean low exposure, high ones high exposure. For orientation: clearance means the rate of elimination divided by the concentration. One may read the Vdss as the apparent volume that relates the amount in the body to the concentration in plasma or blood. A higher Vdss goes with extensive tissue distribution. A word on the MRT last: it is a mean duration of stay, worked out from the concentration-time curve. The term Tmax denotes the time at which the peak concentration occurs. A word on the Cmax: it is the maximum level reached in the sampled fluid or tissue. Broadly, the bioavailability is dose-corrected exposure relative to a reference, in per cent. Read a low bioavailability as little systemic uptake. As usually defined, the IC50 is the concentration at which inhibition is half-maximal.

Data set [1] deals with Mus musculus. Description: Anti-inflammatory activity in DSS-induced C57BL/6 mouse ulcerative colitis model assessed as increase in IL-10 content in colon tissue at 20 mg/kg, po administrated for 6 days measured on day 9. The format is functional, organism-based. The settings on record: time 6.0 day.
The subject of data set [2] is Mus musculus. The data set is described as follows: Anti-ulcerative colitis activity in DSS-induced C57BL/6 mouse ulcerative colitis model assessed as recovery of colon crypts at 20 mg/kg, po administrated for 6 days measured on day 9 by microscopy based histopathological analysis. The format is functional, organism-based. The settings on record: time 6.0 day.
Data set [3] relates to Mus musculus. Description: Anti-ulcerative colitis activity in DSS-induced C57BL/6 mouse ulcerative colitis model assessed as reduction in fecal occult blood at 10 to 20 mg/kg, po administrated for 6 days measured on day 9. The format is functional, organism-based. The settings on record: dose 10-20 mg/kg, time 6.0 day.
For data set [4], the target named is Receptor-type tyrosine-protein kinase FLT3 (Homo sapiens) (UniProt P36888). Description: Inhibition of human FLT3 at 0.1 uM relative to control.
Sequence of Receptor-type tyrosine-protein kinase FLT3 (Homo sapiens) (P36888 whole entry): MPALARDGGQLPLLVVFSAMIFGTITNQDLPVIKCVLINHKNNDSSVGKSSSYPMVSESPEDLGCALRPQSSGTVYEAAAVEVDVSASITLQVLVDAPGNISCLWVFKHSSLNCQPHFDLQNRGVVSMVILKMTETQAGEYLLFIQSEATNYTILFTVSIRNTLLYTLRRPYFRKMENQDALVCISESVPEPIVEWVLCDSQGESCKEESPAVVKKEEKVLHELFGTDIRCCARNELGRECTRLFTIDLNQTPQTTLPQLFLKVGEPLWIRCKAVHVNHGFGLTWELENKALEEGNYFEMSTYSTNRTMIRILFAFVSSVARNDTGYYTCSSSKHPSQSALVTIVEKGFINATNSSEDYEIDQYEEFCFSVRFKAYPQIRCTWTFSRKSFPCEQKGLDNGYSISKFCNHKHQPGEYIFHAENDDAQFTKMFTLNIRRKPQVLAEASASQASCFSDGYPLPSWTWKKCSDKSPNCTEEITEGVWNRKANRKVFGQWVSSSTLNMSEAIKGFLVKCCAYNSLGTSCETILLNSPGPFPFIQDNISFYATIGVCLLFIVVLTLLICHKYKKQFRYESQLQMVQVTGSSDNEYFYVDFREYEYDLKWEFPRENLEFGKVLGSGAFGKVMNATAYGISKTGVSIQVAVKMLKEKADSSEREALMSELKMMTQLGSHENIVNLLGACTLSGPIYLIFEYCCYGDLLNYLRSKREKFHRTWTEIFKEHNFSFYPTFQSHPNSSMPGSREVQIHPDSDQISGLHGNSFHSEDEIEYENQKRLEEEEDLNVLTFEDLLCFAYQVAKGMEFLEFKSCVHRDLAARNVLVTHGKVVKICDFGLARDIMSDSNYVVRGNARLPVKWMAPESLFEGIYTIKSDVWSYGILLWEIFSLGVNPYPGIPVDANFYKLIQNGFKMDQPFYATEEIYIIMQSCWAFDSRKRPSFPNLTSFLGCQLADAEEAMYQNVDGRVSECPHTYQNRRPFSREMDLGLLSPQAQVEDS
Data set [5] is described as follows: Metabolic stability in cryopreserved human liver microsomes assessed as half life. The format is ADME, Microsome. On the technique in general: Microsomes from liver hold many membrane-bound enzymes, among them those of drug oxidation.
Data set [6] has as its system Mus musculus. Description: Anti-inflammatory activity in DSS-induced C57BL/6 mouse ulcerative colitis model assessed as suppression of IL-6 content in colon tissue at 20 mg/kg, po administrated for 6 days measured on day 9. Type of data set: functional, organism-based. The settings on record: time 6.0 day.
Data set [7] can be described thus: AUC (0 to t) in Sprague-Dawley rat at 20 mg/kg, po by LC-MS/MS analysis. The settings on record: in vivo. Type of data set: ADME, organism-based. More on the design: dose 20 mg/kg.
Data set [8] in a line: Clearance in Sprague-Dawley rat at 5 mg/kg, iv by LC-MS/MS analysis. The format is ADME, organism-based. The settings on record: in vivo.
Data set [9] concerns Mus musculus. The data set is described as follows: Anti-ulcerative colitis activity in DSS-induced C57BL/6 mouse ulcerative colitis model assessed as recovery of colon epithelial and mucosal structure at 20 mg/kg, po administrated for 6 days measured on day 9 by microscopy based histopathological analysis. The format is functional, organism-based. To be noted: time 6.0 day.

Data set [10] in a line: Half life in Sprague-Dawley rat at 5 mg/kg, iv by LC-MS/MS analysis. The settings on record: in vivo. Type of data set: ADME, organism-based.
The nature of data set [11]: Volume of distribution at steady state in Sprague-Dawley rat at 5 mg/kg, iv by LC-MS/MS analysis. The format is ADME, organism-based. The settings on record: in vivo.
A short description of data set [12]: MRT (0 to t) in Sprague-Dawley rat at 20 mg/kg, po by LC-MS/MS analysis. The settings on record: in vivo. Type of data set: ADME, organism-based.
For data set [13], the system named is Mus musculus. Description: Anti-ulcerative colitis activity in DSS-induced C57BL/6 mouse ulcerative colitis model assessed as recovery of body weight at 10 to 20 mg/kg, po administrated for 6 days measured on day 9. Type of data set: functional, organism-based. To be noted: dose 10-20 mg/kg, time 6.0 day.
Data set [14] can be described thus: MRT (0 to t) in Sprague-Dawley rat at 5 mg/kg, iv by LC-MS/MS analysis. The format is ADME, organism-based. To be noted: in vivo.
In data set [15] the test system is Mus musculus. Description: Anti-inflammatory activity in DSS-induced C57BL/6 mouse ulcerative colitis model assessed as increase in IL-10 content in serum at 20 mg/kg, po administrated for 6 days measured on day 9. To be noted: time 6.0 day. Type of data set: functional, organism-based.
Data set [16] can be described thus: Tmax in Sprague-Dawley rat at 20 mg/kg, po by LC-MS/MS analysis. The format is ADME, organism-based. The settings on record: in vivo.
Data set [17] relates to Mus musculus. Description: Anti-inflammatory activity in DSS-induced C57BL/6 mouse ulcerative colitis model assessed as suppression of TNFalpha content in colon tissue at 20 mg/kg, po administrated for 6 days measured on day 9. To be noted: time 6.0 day. The format is functional, organism-based.
The subject of data set [18] is Mus musculus. Description: Anti- inflammatory activity in DSS-induced C57BL/6 mouse ulcerative colitis model assessed as suppression of IL-6 content in serum at 20 mg/kg, po administrated for 6 days measured on day 9. To be noted: time 6.0 day. Type of data set: functional, organism-based.
Data set [19] in a line: AUC (0 to t) in Sprague-Dawley rat at 5 mg/kg, iv by LC-MS/MS analysis. Type of data set: ADME, organism-based. More on the design: dose 5 mg/kg. To be noted: in vivo.
The nature of data set [20]: Half life in Sprague-Dawley rat at 20 mg/kg, po by LC-MS/MS analysis. Type of data set: ADME, organism-based. To be noted: in vivo.
Data set [21] can be described thus: Cmax in Sprague-Dawley rat at 5 mg/kg, iv by LC-MS/MS analysis. The format is ADME, organism-based. More on the design: route intravenous, dose 5 mg/kg. To be noted: in vivo.
A short description of data set [22]: Cmax in Sprague-Dawley rat at 20 mg/kg, po by LC-MS/MS analysis. Type of data set: ADME, organism-based. More on the design: route oral, dose 20 mg/kg. The settings on record: in vivo.
Data set [23] deals with Mus musculus. The data set is described as follows: Anti-ulcerative colitis activity in DSS-induced C57BL/6 mouse ulcerative colitis model assessed as reduction in watery stool at 10 to 20 mg/kg, po administrated for 6 days measured on day 9. Type of data set: functional, organism-based. The settings on record: dose 10-20 mg/kg, time 6.0 day.
Data set [24] can be described thus: Oral bioavailability in Sprague-Dawley rat at 20 mg/kg by LC-MS/MS analysis. The format is ADME, organism-based. To be noted: in vivo.
Data set [25] concerns Mus musculus. The data set is described as follows: Anti-inflammatory activity in DSS-induced C57BL/6 mouse ulcerative colitis model assessed as suppression of TNFalpha content in serum at 20 mg/kg, po administrated for 6 days measured on day 9. The settings on record: time 6.0 day. Type of data set: functional, organism-based.
Data set [26] addresses Serine/threonine-protein kinase 16 (Homo sapiens) (UniProt O75716). Description: Inhibition of human STK16 at 0.1 uM relative to control.
The test system of data set [27] is Mus musculus. Description: Anti-ulcerative colitis activity in DSS-induced C57BL/6 mouse ulcerative colitis model assessed as increase in colon length at 10 to 20 mg/kg, po administrated for 6 days measured on day 9. Type of data set: functional, organism-based. To be noted: dose 10-20 mg/kg, time 6.0 day.
Data set [28] has as its target Tyrosine-protein kinase JAK1 (Homo sapiens, UniProt P23458). Description: Inhibition of human JAK1 (866 to end residues) using GEEPLYWSFPAKKK as substrate after 40 mins in presence of [gamma33P]ATP by scintillation counting based radiometry assay.
The target of data set [29] is T1, Tyrosine-protein kinase JAK3 (Homo sapiens, UniProt P52333).
T1 sequence (P52333 whole entry): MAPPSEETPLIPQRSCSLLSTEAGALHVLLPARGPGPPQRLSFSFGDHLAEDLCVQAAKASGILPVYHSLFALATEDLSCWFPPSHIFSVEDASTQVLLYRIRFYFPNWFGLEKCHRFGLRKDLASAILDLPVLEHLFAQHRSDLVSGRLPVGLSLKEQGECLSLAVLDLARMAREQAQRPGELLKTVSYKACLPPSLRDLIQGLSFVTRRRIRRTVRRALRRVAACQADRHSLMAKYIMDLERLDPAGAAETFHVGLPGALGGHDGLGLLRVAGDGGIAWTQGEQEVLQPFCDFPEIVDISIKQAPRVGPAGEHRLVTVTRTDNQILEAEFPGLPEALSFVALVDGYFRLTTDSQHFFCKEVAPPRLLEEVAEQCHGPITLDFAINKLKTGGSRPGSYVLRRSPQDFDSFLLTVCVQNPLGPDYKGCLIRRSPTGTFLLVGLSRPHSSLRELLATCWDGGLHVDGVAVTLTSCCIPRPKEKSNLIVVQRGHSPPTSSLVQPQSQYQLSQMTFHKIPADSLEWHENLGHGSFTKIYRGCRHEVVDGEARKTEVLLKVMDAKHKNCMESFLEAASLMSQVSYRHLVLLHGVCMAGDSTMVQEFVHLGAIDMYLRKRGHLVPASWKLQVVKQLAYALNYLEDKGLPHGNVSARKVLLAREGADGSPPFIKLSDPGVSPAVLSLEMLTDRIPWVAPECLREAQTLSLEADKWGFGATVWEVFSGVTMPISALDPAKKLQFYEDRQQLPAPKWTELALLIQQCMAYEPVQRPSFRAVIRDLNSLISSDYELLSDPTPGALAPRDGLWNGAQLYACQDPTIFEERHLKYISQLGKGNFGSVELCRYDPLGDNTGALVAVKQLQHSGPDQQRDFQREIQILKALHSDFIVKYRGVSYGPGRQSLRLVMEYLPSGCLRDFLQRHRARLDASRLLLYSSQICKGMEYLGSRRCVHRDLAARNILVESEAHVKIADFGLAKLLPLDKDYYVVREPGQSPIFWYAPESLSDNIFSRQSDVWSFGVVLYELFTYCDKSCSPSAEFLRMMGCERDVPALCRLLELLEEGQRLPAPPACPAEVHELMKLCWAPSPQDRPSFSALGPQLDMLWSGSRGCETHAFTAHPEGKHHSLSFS
Description: Inhibition of recombinant human JAK3 (781 to end residues) using GGEEEEYFELVKKKK as substrate measured after 40 mins in presence of [gamma33P]ATP by scintillation counting based radiometry assay.

Data set [30] addresses Tyrosine-protein kinase JAK2 (Homo sapiens, UniProt O60674). The data set is described as follows: Inhibition of recombinant human JAK2 (808 to end residues) KTFCGTPEYLAPE as substrate measured after 40 mins in presence of [gamm33P]ATP by scintillation counting based radiometry assay.
In data set [31] the target is Non-receptor tyrosine-protein kinase TYK2 (Homo sapiens, UniProt P29597). Description: Inhibition of recombinant human TYK2 (875 to end residues) using GGMEDIYFEFMGG as substrate incubated for 40 mins in presence of [gamma33P]ATP by scintillation counting based radiometry assay.
Sequence of Non-receptor tyrosine-protein kinase TYK2 (P29597 whole entry): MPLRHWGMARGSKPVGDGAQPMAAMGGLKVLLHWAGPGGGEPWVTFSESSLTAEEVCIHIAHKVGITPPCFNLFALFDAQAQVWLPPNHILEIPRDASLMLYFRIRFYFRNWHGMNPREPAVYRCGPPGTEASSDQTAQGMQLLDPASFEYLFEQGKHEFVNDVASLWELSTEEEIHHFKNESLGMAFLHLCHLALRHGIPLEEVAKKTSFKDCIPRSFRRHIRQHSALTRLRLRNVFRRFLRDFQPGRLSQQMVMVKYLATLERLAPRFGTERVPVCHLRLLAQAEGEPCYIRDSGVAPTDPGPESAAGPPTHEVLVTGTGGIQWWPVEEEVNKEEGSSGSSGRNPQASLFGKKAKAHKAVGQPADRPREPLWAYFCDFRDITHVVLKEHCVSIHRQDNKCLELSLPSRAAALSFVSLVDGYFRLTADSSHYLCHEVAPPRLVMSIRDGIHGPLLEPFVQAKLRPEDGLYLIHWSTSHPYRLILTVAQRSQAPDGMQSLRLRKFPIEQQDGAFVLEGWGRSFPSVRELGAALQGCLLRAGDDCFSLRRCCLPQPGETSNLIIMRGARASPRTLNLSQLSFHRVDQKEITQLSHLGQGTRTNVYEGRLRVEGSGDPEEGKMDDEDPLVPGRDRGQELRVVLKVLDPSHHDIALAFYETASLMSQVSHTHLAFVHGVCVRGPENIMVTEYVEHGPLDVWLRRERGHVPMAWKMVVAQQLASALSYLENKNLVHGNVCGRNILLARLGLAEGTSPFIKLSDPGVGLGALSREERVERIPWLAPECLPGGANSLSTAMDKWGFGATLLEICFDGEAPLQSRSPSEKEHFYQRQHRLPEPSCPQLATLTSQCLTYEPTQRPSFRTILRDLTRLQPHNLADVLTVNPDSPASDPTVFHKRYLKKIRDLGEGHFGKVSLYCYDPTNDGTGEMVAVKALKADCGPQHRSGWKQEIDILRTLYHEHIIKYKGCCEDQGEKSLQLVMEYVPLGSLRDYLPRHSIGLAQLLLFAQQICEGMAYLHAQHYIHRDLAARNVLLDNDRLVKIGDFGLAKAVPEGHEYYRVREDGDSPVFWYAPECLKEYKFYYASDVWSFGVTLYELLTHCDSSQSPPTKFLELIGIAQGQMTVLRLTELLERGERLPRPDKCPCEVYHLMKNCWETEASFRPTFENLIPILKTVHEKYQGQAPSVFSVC
The next data set is filed under the species Homo sapiens. The data set is described as follows: Selectivity index, ratio of IC50 for inhibition of recombinant human JAK2 (808 to end residues) to IC50 for inhibition of recombinant human TYK2 (875 to end residues).

Calls of active or inactive are those of the source.

Sequence of Tyrosine-protein kinase JAK1 (P23458 whole entry): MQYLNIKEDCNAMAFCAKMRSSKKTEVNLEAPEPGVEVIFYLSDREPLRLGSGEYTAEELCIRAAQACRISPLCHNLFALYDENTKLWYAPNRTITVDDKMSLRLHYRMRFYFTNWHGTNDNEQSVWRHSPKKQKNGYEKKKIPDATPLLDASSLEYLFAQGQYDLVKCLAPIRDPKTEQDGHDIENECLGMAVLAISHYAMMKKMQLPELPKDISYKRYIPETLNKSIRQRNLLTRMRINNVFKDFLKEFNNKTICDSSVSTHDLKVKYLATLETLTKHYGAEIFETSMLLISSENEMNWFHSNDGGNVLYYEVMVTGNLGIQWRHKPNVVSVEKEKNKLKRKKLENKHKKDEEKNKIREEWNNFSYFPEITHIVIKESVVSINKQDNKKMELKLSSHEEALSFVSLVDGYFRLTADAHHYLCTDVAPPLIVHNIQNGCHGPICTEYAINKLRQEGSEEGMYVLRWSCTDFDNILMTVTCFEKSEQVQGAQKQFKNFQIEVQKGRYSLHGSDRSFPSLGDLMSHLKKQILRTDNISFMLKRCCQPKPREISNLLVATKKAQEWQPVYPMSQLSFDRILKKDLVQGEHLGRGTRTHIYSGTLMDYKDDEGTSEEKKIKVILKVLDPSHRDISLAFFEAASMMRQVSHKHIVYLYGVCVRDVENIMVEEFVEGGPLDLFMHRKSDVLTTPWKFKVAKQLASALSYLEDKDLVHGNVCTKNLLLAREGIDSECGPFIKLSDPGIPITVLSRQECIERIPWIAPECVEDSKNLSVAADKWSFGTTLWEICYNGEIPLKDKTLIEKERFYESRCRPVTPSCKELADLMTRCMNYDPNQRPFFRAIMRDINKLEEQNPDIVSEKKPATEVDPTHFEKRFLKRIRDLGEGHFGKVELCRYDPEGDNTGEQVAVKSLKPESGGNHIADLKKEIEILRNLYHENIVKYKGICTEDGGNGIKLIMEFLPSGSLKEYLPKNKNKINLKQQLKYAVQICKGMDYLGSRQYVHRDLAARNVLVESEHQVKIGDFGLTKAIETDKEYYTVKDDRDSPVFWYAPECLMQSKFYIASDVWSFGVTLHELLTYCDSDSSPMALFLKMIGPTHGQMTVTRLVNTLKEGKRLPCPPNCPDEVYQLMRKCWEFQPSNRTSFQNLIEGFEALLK
Sequence of Tyrosine-protein kinase JAK2 (O60674 whole entry): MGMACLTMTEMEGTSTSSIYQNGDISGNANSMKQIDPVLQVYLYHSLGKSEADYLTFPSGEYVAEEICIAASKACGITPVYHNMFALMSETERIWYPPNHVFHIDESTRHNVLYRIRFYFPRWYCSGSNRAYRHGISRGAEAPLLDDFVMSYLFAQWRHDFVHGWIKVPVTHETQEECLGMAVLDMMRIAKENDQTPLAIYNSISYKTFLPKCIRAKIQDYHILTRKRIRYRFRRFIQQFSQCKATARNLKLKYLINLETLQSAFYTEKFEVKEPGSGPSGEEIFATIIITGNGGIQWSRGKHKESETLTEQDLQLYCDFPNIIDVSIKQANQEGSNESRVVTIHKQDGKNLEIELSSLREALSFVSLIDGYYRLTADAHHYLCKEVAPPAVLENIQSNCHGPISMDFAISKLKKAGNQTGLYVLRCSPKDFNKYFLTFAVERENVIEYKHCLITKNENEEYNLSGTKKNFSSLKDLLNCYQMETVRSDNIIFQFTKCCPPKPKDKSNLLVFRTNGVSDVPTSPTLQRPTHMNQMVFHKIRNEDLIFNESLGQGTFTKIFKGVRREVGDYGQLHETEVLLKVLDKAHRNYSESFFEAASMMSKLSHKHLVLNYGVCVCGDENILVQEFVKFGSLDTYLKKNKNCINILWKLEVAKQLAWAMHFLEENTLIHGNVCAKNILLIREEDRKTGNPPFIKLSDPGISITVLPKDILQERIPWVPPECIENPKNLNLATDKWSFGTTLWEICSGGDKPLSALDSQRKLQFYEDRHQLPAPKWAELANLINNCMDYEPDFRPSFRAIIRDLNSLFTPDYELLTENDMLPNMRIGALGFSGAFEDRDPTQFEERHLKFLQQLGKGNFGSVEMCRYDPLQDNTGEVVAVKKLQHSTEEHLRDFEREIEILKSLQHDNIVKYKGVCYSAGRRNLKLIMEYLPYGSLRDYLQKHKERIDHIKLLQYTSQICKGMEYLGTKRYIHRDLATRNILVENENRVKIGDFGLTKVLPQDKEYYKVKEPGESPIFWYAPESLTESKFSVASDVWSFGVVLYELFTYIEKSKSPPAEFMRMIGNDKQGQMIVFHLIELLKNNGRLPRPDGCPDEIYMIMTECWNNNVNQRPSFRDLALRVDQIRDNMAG
Sequence of Serine/threonine-protein kinase 16 (Homo sapiens) (O75716 whole entry): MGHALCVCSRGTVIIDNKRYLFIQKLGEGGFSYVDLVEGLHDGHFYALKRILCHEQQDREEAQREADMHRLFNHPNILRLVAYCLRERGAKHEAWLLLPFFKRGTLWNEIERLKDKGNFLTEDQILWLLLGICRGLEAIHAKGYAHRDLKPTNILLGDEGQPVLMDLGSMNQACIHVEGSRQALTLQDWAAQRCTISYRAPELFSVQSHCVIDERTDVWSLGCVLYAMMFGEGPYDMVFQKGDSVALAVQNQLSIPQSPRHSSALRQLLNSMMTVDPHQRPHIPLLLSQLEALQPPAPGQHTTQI

Regarding `N#CCCn1cc(-c2nc(Nc3ccc4c(ccn4S(=O)(=O)C(F)(F)F)c3)ncc2F)cn1`, the outcome in the data set with Mus musculus [1], in the data set with Mus musculus [2], in the data set with Mus musculus [3], with Mus musculus [6], in the data set on Mus musculus [9] and in the data set on Mus musculus [13] was Active. In addition, the result in the data set on Mus musculus [15], in the data set with Mus musculus [17], with Mus musculus [18], in the data set on Mus musculus [23], in the data set on Mus musculus [25] and in the data set on Mus musculus [27] was Active. In data set [4], this molecule returned an inhibition of 32%. Besides, the half-life in data set [5] was 2.03 h; in data set [10] it was 5.95 h; in data set [20] it was 3.64 h. In addition, the AUC(0-t) in data set [7] stood at 13.9 ng·h/mL; in data set [19], 29 ng·h/mL. In addition, the clearance in [8] stood at 1.58 mL/min/kg. Besides, the Vdss in data set [11] turned out to be 0.985 L/kg. For the same molecule, the MRT last in data set [12] amounted to 2.76 h. Moreover, the “MRT(t)” value in data set [14] was determined as 4.98 h. The Tmax in data set [16] stood at 1 h. The Cmax in [21] was determined as 48.5 ng/mL; in data set [22], 8 ng/mL. In addition, the bioavailability in data set [24] worked out at 12%. Also, the inhibition entry in data set [26] was “inactive”.

Consider `Cc1cnc(Nc2ccc3c(c2)CCN3S(=O)(=O)c2ccc(C(F)(F)F)cc2)nc1-c1cnn(C(C)C)c1`, for which the IC50 was 341 nM in data set [28], more than 1000 nM in data set [29], 82 nM in data set [30] and 16 nM in [31]. The half-life in [5] is 0.0657 h. Moreover, the Selectivity Index in the data set filed under Homo sapiens turned out to be 5.12.

Take `N#CCCn1cc(-c2nc(Nc3ccc4c(c3)CCN4C(=O)C3(C#N)CC3)ncc2F)cn1`: the IC50 in data set [28] came out at 259 nM; in [29], 191 nM; in [30], 28 nM; in [31] it was 6 nM. Further, the half-life in data set [5] was 0.53 h.

With `CCOC(C)n1cc(-c2nc(Nc3ccc4c(c3)CCN4S(=O)(=O)c3ccc(C(F)(F)F)cc3)ncc2C)cn1` (stereo not drawn), the IC50 in data set [28] is 383 nM; in [29], 510 nM; in [30] it was 341 nM; in data set [31] it was 38 nM. Besides, in data set [5], the half-life turned out to be 0.255 h.
